Values after ≈ are worked out from the molar mass of the structure shown. Where two headings read alike, the source gives them in different places.
What was measured:
[1] = system: E. coli TG1; experiment: microbe, parasite or virus in culture; assay type: cell-based; conditions: Escherichia coli
Experimental: (§1) The MICs of each of the individual compounds (antibiotics or inhibitors) were also determined. The MICs were determined for the E. coli isogenic expressing OXA-48 (and both OXA-48 and CTX-M-14) to assess their activity against the carbapenemase; MICs were also determined for the 18 Enterobacterales clinical isolates in order to evaluate the new inhibitors against also their resistance concomitant mechanisms. The MICs were determined in triplicate experiments, and the EUCAST 13.0 clinical breakpoints were followed (http://www.eucast.org/clinical_breakpoints).
(§2) For comparative evaluation of the activity of each inhibitor alone against the carbapenemase OXA-48, all inhibitors (at 4 mg/L) were tested in the presence of a carbapenem (ertapenem, adequate substrate) and a cephalosporin (ceftazidime, poor substrate) as reporter substrates. This prevented any possible masking effect produced by the different partner antibiotics. These assays were also performed with isogenic transformants and clinical isolates.

[2] = system: E. coli TG1 (OXA-48); experiment: microbe, parasite or virus in culture; assay type: cell-based, Escherichia coli; conditions: Escherichia coli
Experimental: as §1, §2

[3] = system: E. coli HB4 ΔompC/F (CTX-M-14 + OXA-48); experiment: microbe, parasite or virus in culture; assay type: cell-based, Escherichia coli; conditions: Escherichia coli
Excerpt: (§3) The E. coli HB4 strain was used to gain a more complete perspective, by evaluating the involvement in resistance of a low permeability background with the carbapenemase OXA-48, as well as coproduction of an ESBL and the carbapenemase; thus, the ESBL CTX-M-14 and OXA-48 were cloned together and separately into E. coli HB4. The characteristics of these strains and transformants are summarized in Table S1, and the cloning procedures are outlined in the supplemental methods.
as §1, §2

[4] = system: E. coli HB4 ΔompC/F (CTX-M-14); experiment: microbe, parasite or virus in culture; assay type: cell-based, Escherichia coli; conditions: Escherichia coli
Excerpt: as §3, §1, §2

[5] = system: E. coli HB4 ΔompC/F; experiment: microbe, parasite or virus in culture; assay type: cell-based, Escherichia coli; conditions: Escherichia coli
Excerpt: as §3, §1, §2

[6] = system: E. coli HB4 ΔompC/F (OXA-48); experiment: microbe, parasite or virus in culture; assay type: cell-based, Escherichia coli; conditions: Escherichia coli
Excerpt: as §3, §1, §2

[7] = system: E. cloacae strain 235 (MLST 171, ESBL); experiment: microbe, parasite or virus in culture; assay type: cell-based; conditions: Enterobacter cloacae
Experimental: (§4) The efficacy of these new BLIs was also evaluated against 18 genetically diverse WGS-characterized collection of OXA-48-positive Enterobacterales recovered as part of the Carbapenem-resistant Enterobacterales Genome Database Project (https://genomes.cnag.cat/incredble) listed in Table S2 ([13]). Combinations of clinical isolates (five pairs of Klebsiella pneumoniae, two pairs of Enterobacter cloacae, and two pairs of E. coli) were chosen for analysis: (i) nine strains carrying ESBLs; and (ii) nine strains (genetically closer available strains) without ESBLs.
as §1, §2

[8] = system: E. coli strain 103 (MLST 10, ESBL); experiment: microbe, parasite or virus in culture; assay type: cell-based; conditions: Escherichia coli
Experimental: as §4, §1, §2

[9] = system: E. cloacae strain 281 (MLST 78, No ESBL); experiment: microbe, parasite or virus in culture; assay type: cell-based; conditions: Enterobacter cloacae, E. cloacae 281, read-out: MIC
Experimental: as §4, §1, §2

[10] = system: E. cloacae strain 231 (MLST 171, No ESBL); experiment: microbe, parasite or virus in culture; assay type: cell-based; conditions: Enterobacter cloacae, E. cloacae 231, read-out: MIC
Experimental: as §4, §1, §2

[11] = system: K. pneumoniae strain 413 (MLST 147, ESBL); experiment: microbe, parasite or virus in culture; assay type: cell-based; conditions: Klebsiella pneumoniae
Experimental: as §4, §1, §2

[12] = system: E. coli strain 224 (MLST 127, No ESBL); experiment: microbe, parasite or virus in culture; assay type: cell-based; conditions: Escherichia coli, E. coli 224, read-out: MIC
Experimental: as §4, §1, §2

[13] = system: K. pneumoniae strain 237 (MLST 147, No ESBL); experiment: microbe, parasite or virus in culture; assay type: cell-based; conditions: Klebsiella pneumoniae, K. pneumoniae 237, read-out: MIC
Experimental: as §4, §1, §2

[14] = system: K. pneumoniae strain 497 (MLST 11, No ESBL); experiment: microbe, parasite or virus in culture; assay type: cell-based; conditions: Klebsiella pneumoniae, K. pneumoniae 497, read-out: MIC
Experimental: as §4, §1, §2

[15] = system: E. coli strain 177 (MLST 131, ESBL); experiment: microbe, parasite or virus in culture; assay type: cell-based; conditions: Escherichia coli
Experimental: as §4, §1, §2

[16] = system: K. pneumoniae strain 71 (MLST 15, No ESBL); experiment: microbe, parasite or virus in culture; assay type: cell-based; conditions: Klebsiella pneumoniae, K. pneumoniae 71, read-out: MIC
Experimental: as §4, §1, §2

[17] = system: K. pneumoniae strain 19 (MLST 11, ESBL); experiment: microbe, parasite or virus in culture; assay type: cell-based; conditions: Klebsiella pneumoniae
Experimental: as §4, §1, §2

[18] = system: K. pneumoniae strain 194 (MLST 392, No ESBL); experiment: microbe, parasite or virus in culture; assay type: cell-based; conditions: Klebsiella pneumoniae, K. pneumoniae 194, read-out: MIC
Experimental: as §4, §1, §2

[19] = system: K. pneumoniae strain 238 (MLST 15, ESBL); experiment: microbe, parasite or virus in culture; assay type: cell-based; conditions: Klebsiella pneumoniae
Experimental: as §4, §1, §2

[20] = system: K. pneumoniae strain 170 (MLST 307, No ESBL); experiment: microbe, parasite or virus in culture; assay type: cell-based; conditions: Klebsiella pneumoniae, K. pneumoniae 170, read-out: MIC
Experimental: as §4, §1, §2

[21] = system: E. cloacae strain 272 (MLST 78, ESBL); experiment: microbe, parasite or virus in culture; assay type: cell-based; conditions: Enterobacter cloacae
Experimental: as §4, §1, §2

[22] = system: K. pneumoniae strain 23 (MLST 392, ESBL); experiment: microbe, parasite or virus in culture; assay type: cell-based; conditions: Klebsiella pneumoniae
Experimental: as §4, §1, §2

[23] = system: K. pneumoniae strain 125 (MLST 307, ESBL); experiment: microbe, parasite or virus in culture; assay type: cell-based; conditions: Klebsiella pneumoniae
Experimental: as §4, §1, §2

[24] = system: E. coli strain 264 (MLST 131, No ESBL); experiment: microbe, parasite or virus in culture; assay type: cell-based; conditions: Escherichia coli, E. coli 264, read-out: MIC
Experimental: as §4, §1, §2

[25] = system: OXA-48-producing Enterobacterales clinical isolates; experiment: MIC summary over clinical isolates; assay type: cell-based
Experimental: as §4, §1, §2

[26] = ertapenem alone or with BLI at 4 mg/L
[27] = BL alone or BL/BLI: AVI, REL, TAN, DUR 4 mg/L, VAB, XER 8 mg/L, ZID, NAC 1:1

Row | Compound | MIC [2] [µg/mL] | MIC [3] [µg/mL] | MIC [4] [µg/mL] | MIC [5] [µg/mL] | MIC [6] [µg/mL] | MIC [7] [µg/mL] | MIC [8] [µg/mL] | MIC [11] [µg/mL] | MIC [15] [µg/mL] | MIC [17] [µg/mL] | MIC [19] [µg/mL] | MIC [21] [µg/mL] | MIC [22] [µg/mL] | MIC [23] [µg/mL] | MIC [1, 27] [µg/mL] | MIC [12, 27] [µg/mL] | MIC [13, 27] [µg/mL] | MIC [14, 27] [µg/mL] | MIC [16, 27] [µg/mL] | MIC [18, 27] [µg/mL] | other results
1 | C[C@@H](O)[C@H]1C(=O)N2C(C(=O)O)=C(S[C@@H]3CN[C@H](C(=O)Nc4cccc(C(=O)O)c4)C3)[C@H](C)[C@H]12 [ERT, ertapenem] | 1 (≈ 2.1 µM) | 32 (≈ 67.3 µM) | 0.5 (≈ 1.05 µM) | 0.12 (≈ 0.252 µM) | 32 (≈ 67.3 µM) | ≥ 256 | 4 | ≥ 256 | 4 | 4 | 4 | 16 | 4 | 8 |  |  |  |  |  |  | MIC [1, 26]: ≤ 0.06 µg/mL; MIC [9, 26]: 4 µg/mL; MIC [10, 26]: 8 µg/mL; MIC [12, 26]: 2 µg/mL; MIC [13, 26]: 4 µg/mL; MIC [14, 26]: 8 µg/mL; MIC [16, 26]: 8 µg/mL; MIC [18, 26]: 4 µg/mL; MIC [20, 26]: 4 µg/mL; MIC [24, 26]: 4 µg/mL
2 | CO/N=C(\C(=O)N[C@@H]1C(=O)N2C(C(=O)[O-])=C(C[N+]3(C)CCCC3)CS[C@H]12)c1csc(N)n1 [FEP, cefepime] | ≤ 0.06 |  |  | 1 (≈ 2.08 µM) |  |  |  | 128 | ≥ 256 |  |  |  | 32 |  | ≤ 0.06 | 0.5 | 0.5 | 0.5 | 0.5 | 0.25 | MIC [20, 27]: 0.25 µg/mL
3 | C[C@@H](O)[C@H]1C(=O)N2C(C(=O)O)=C(SCCN=CN)C[C@H]12 [IMP, imipenem] | 0.12 (≈ 0.401 µM) | 16 (≈ 53.4 µM) | 0.25 (≈ 0.835 µM) | ≤ 0.06 | 16 (≈ 53.4 µM) | ≥ 256 | 2 | 16 | 2 | 1 | 2 | 2 | 4 | 4 | ≤ 0.06 | 2 | 2 | 4 | 2 | 2 | MIC [9, 27]: 8 µg/mL; MIC [10, 27]: 2 µg/mL; MIC [20, 27]: 4 µg/mL; MIC [24, 27]: 0.5 µg/mL
4 | C[C@@H](O)[C@H]1C(=O)N2C(C(=O)O)=C(S[C@@H]3CN[C@H](C(=O)N(C)C)C3)[C@H](C)[C@H]12 [MER, meropenem] | ≤ 0.06 | 32 (≈ 83.4 µM) | 0.5 (≈ 1.3 µM) | 0.12 (≈ 0.313 µM) | 32 (≈ 83.4 µM) | 128 | 0.25 | 16 | 0.5 | 1 | 1 | 1 | 1 | 2 | ≤ 0.06 | 0.5 | 1 | 1 | 2 | 2 | MIC [9, 27]: 1 µg/mL; MIC [10, 27]: 1 µg/mL; MIC [20, 27]: 1 µg/mL; MIC [24, 27]: 1 µg/mL
5 | O=C(NC1CCNCC1)[C@@H]1CC[C@@H]2CN1C(=O)N2OS(=O)(=O)O [Relebactam, relebactam] | 64 (≈ 184 µM) | ≥ 128 | ≥ 128 | ≥ 128 | ≥ 128 | ≥ 128 | ≥ 128 | ≥ 128 | ≥ 128 | ≥ 128 | ≥ 128 | ≥ 128 | ≥ 128 | ≥ 128 |  |  |  |  |  |  | MIC ([1]; β-lactamase inhibitor alone): 32 µg/mL (≈ 91.9 µM); MIC ([9]; β-lactamase inhibitor alone): ≥ 128 µg/mL; MIC ([10]; β-lactamase inhibitor alone): ≥ 128 µg/mL; MIC ([12]; β-lactamase inhibitor alone): ≥ 128 µg/mL; MIC ([13]; β-lactamase inhibitor alone): ≥ 128 µg/mL; MIC ([14]; β-lactamase inhibitor alone): ≥ 128 µg/mL; MIC ([16]; β-lactamase inhibitor alone): ≥ 128 µg/mL; MIC ([18]; β-lactamase inhibitor alone): ≥ 128 µg/mL; MIC ([20]; β-lactamase inhibitor alone): ≥ 128 µg/mL; MIC ([24]; β-lactamase inhibitor alone): ≥ 128 µg/mL
6 | CC1(C)[C@H](C(=O)O)N2C(=O)C[C@H]2S1(=O)=O [SUL, sulbactam] | 32 (≈ 137 µM) | 64 (≈ 274 µM) | 32 (≈ 137 µM) | 32 (≈ 137 µM) | 64 (≈ 274 µM) | ≥ 256 | 64 | 128 | 64 | 64 | 128 | 128 | 128 | 64 | 32 (≈ 137 µM) | 128 | 64 | 128 | 128 | 64 | MIC [25]: ≥ 64 µg/mL; MIC [9, 27]: 128 µg/mL; MIC [10, 27]: 64 µg/mL; MIC [20, 27]: 64 µg/mL; MIC [24, 27]: 64 µg/mL
